Results: patent US10800755B2, “2,6-disubstituted pyridine derivative” (Sumitomo Dainippon Pharma Co., Ltd., priority 2017, dated 2020)
Where two headings read alike, the source gives them in different places.

Tests used:
human 5-HT1A receptor [1] = target: T1, human 5-HT1A receptor (Homo sapiens (Human), UniProt P08908); test: Test 1: agonistic activity for human 5-HT1A receptor (aequorin/Gα16 luminescence in CHO-K1 cell); format: cell-based; details: for 5-HT1A agonistic activity Emax / Emax: 100% = 10 μmol/L endogenous ligand; for EC50: CHO-K1 cell, aequorin luminescence; for Emax: CHO-K1
Description: (§1) Test 1: Evaluation of Agonistic Activity for Human 5-HT1A Receptor and Human D4 Receptor
(§2) Aequorin, Gα16 proteins, and each receptor were transiently expressed in CHO-K1 cell (Chinese hamster ovary), and seeded to 384-well plate. The plate was incubated in a CO2 incubator at 37° C. for 24 hours. Each example compound dissolved in DMSO was added thereto, and the change of luminescence amount was measured with Hamamatsu FDSS/μCELL System (Hamamatsu Photonics).

human 5-HT1A receptor [2] = target: T1, human 5-HT1A receptor; test: Test 2: binding activity to human 5-HT1A receptor ([3H] 8-OH-DPAT, CHO cell membrane)
Description: (§3) Test 2: Evaluation of Binding Activity to Human 5-HT1A Receptor, Human D4 Receptor, and Human D2 Receptor
(§4) CHO cell membrane fraction in which human 5-HT1A receptor, human D4 receptor, and human D2 receptor were expressed was purchased from PerkinElmer Co., Ltd. In the evaluation test of binding, the test compound dissolved in DMSO, each receptor membrane preparation diluted with buffer solution, and [3H] […] The nonspecific binding to each receptor was evaluated by a competition binding experiment in the presence of 10 μmol/L 8-OH-DPAT, 10 μmol/L dopamine, or 10 μmol/L spiperone, respectively.

human D4 receptor [3] = target: T2, human D4 receptor (Homo sapiens (Human), UniProt P21917); test: Test 2: binding activity to human D4 receptor ([3H] dopamine, CHO cell membrane)
Description: as §3, §4

human D4 receptor [4] = target: T2, human D4 receptor; test: Test 1: agonistic activity for human D4 receptor (aequorin/Gα16 luminescence in CHO-K1 cell); format: cell-based; details: for D4 agonistic activity Emax / Emax: 100% = 10 μmol/L endogenous ligand; for EC50: CHO-K1 cell, aequorin luminescence; for Emax: CHO-K1
Description: as §1, §2

human D2 receptor = human D2 receptor (Homo sapiens (Human), UniProt P14416); test: Test 2: binding activity to human D2 receptor ([3H] spiperone, CHO cell membrane)
Description: as §3, §4

[5] = Test 3-1: metabolic stability test of human liver microsome (0.1 mg/mL); format: in vitro ADME; details: test compound 0.1 μmol/L, 37° C., 30 minutes
Description: Test 3-1: Metabolic Stability Test of Human Liver Microsome
The stability of the present compounds for human liver microsome metabolism was evaluated as mentioned below. The used human liver microsome was obtained from Xenontech. Human liver microsome, NADPH, and each test compound were mixed in 25 mmol/L phosphate buffer solution (pH 7.4) to adjust each concentration as shown below, and the mixture was incubated at 37° C. for 30 minutes. • human liver microsome: 0.1 mg/mL • NAPDH: 3.2 mmol/L • test compound: 0.1 μmol/L
The residual ratio of the test compound in each sample after the incubation for 30 minutes was measured with a LC-MS, and the metabolic stability of human liver microsome was calculated about each test compound with the following formula. Metabolic stability of human liver microsome (mL/min/mg protein)=−LN (residual ratio)/“reaction time”/“concentration of human liver microsome”

hERG channel = hERG channel (Homo sapiens (Human), UniProt Q12809); test: Test 5-2: activity for inhibiting hERG channel (whole-cell patch clamp, hERG-CHO cell, Qube); format: cell-based; details: read-out: hERG inhibition IC50
Description: Test 5-2: Evaluation of Activity for Inhibiting hERG Channel
The activity of the present compound for inhibiting hERG channel was measured by whole-cell patch clamp method with auto patch clamp system, using CHO cell wherein hERG channel involved in human rapidly activating delayed rectifier potassium current (IKr) was forcibly expressed.
hERG-CHO cell purchased from ChanTest was incubated at 37° C. in a CO2 incubator, and the cell was exfoliated from the flask with trypsin to prepare a cell suspension, shortly before the hERG current measurement.
Extracellular fluid: 2 mmol/L CaCl2, 1 mmol/L MgCl2, 10 mmol/L HEPES, 4 mmol/L KCl, 145 mmol/L NaCl, 10 mmol/L glucose
Intracellular fluid: 10 mmol/L HEPES, 10 mmol/L EGTA, 20 mmol/L KCl, 130 mmol/L KF
Test compound solution: The compound was dissolved in DMSO by adjusting the concentration to 2 mmol/L or 20 mmol/L to prepare each test compound solution. […] (Measurement of Current Value and Data Analysis)
The cell suspension, the extracellular fluid, the intracellular fluid, and the measurement plate were set in an auto patch clamp system, and the hERG current was measured by whole-cell patch clamp method. The voltage-protocol was as follows: the holding potential was adjusted to −80 mV, the depolarizing pulse was added at −50 mV to +20 mV for 5 seconds, the repolarizing pulse was added at −50 mV for 5 seconds, then the potential was returned to the holding potential. Each pulse interval was 15 seconds. The data analysis was carried out with Qube Assay Software (Sophion Scientific). The test was carried out applying increscently 4 concentrations of each test compound, and the average of the peak tail currents that were obtained by the last 3 stimulations in each applied concentration was made to be the evaluated data. By using the current inhibition rate for the pre-applied current at each concentration of each test compound, IC50 value was calculated by Hill equation with the software.

[6] = [3H] 8-OH-DPAT, read-out: 5-HT1A binding affinity (Ki value)
[7] = [3H] dopamine, read-out: D4 binding affinity (Ki value)
[8] = [3H] spiperone, read-out: D2 binding affinity (Ki value)

Chain of hERG channel (Q12809 whole entry): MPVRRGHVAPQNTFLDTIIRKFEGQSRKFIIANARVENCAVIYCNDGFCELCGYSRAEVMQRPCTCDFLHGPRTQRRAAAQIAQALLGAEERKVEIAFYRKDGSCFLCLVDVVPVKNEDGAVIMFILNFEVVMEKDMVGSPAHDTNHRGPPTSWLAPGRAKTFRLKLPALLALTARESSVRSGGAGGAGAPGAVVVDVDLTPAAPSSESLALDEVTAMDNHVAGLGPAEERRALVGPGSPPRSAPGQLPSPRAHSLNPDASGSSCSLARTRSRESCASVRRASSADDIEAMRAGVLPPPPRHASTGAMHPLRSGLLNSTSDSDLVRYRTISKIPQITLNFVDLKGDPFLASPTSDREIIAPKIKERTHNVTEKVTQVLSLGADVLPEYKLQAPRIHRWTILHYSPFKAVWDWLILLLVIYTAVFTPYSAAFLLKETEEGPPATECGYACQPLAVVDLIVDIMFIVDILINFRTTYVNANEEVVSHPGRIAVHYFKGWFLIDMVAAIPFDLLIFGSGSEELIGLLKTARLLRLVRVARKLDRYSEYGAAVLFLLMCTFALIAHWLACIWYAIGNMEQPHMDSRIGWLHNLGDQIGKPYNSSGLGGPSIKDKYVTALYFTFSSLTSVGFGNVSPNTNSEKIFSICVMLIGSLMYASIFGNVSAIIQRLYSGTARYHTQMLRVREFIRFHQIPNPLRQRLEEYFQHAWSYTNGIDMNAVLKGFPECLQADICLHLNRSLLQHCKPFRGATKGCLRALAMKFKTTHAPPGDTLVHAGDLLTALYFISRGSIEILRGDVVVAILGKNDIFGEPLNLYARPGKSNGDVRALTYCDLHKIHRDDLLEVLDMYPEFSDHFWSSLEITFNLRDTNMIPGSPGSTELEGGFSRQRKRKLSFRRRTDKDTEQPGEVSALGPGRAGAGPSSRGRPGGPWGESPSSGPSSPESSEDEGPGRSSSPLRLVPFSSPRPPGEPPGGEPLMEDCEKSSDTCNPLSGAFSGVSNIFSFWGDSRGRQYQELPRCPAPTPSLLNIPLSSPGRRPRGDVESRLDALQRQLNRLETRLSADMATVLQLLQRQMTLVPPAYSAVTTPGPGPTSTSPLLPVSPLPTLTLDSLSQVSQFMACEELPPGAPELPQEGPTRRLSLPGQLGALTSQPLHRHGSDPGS
T2 sequence (P21917 whole entry): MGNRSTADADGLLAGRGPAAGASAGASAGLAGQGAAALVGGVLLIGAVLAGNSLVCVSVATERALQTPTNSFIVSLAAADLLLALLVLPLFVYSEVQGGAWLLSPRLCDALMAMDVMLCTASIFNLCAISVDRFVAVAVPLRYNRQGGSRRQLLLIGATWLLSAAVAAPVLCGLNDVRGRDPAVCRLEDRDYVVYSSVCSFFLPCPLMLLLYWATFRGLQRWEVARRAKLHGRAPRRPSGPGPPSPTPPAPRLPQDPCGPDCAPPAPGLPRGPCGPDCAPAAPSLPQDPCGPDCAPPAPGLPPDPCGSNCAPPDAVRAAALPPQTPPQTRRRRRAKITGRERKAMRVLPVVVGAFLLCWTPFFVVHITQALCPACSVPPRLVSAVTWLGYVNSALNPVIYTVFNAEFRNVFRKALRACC
T1 sequence (P08908 whole entry): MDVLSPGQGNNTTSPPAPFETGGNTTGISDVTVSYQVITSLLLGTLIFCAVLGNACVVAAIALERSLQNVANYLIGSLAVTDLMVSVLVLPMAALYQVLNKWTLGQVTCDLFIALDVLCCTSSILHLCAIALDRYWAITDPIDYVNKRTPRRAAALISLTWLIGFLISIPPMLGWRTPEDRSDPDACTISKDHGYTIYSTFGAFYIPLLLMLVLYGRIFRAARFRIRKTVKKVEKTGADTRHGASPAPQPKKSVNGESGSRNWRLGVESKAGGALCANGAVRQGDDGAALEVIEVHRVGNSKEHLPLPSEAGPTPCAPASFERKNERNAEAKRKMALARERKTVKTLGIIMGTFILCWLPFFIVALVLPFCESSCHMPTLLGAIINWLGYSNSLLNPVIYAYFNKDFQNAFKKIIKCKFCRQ
Chain of human D2 receptor (P14416 whole entry): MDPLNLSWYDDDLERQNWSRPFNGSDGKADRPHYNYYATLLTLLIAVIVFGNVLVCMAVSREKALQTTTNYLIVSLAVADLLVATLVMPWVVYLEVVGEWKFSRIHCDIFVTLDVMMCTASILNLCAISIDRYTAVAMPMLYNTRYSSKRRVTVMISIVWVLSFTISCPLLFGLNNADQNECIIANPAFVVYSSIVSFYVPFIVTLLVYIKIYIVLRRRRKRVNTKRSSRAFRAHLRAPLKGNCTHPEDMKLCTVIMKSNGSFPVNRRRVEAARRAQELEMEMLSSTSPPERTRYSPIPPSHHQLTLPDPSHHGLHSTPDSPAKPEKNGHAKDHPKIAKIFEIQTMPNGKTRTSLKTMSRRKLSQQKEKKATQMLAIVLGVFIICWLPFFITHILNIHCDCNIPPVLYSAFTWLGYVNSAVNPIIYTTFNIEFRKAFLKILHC

Compound | EC50 (human 5-HT1A receptor [1]) | Ki (human 5-HT1A receptor [2]; [6]) | Ki (human D4 receptor [3]; [7]) | EC50 (human D4 receptor [4]) | Ki (human D2 receptor; [8]) | Emax (human 5-HT1A receptor [1]) | Emax (human D4 receptor [4]) | 5-HT1A agonistic activity Emax (human 5-HT1A receptor [1]) | D4 agonistic activity Emax (human D4 receptor [4]) | Metabolic stability of human liver microsome [5] | Ki (human D4 receptor [3]) | IC50 (hERG channel) | Ki (human 5-HT1A receptor [2]) | Ki (human D2 receptor)
COCC(C)(C)C(=O)NCCN1CCC(c2cccc(C)n2)CC1 [Example 5] | 42 nM | 80 nM | 170 nM | 55.8 nM | > 10 µM | – | – | 100% | 57% | <0.01 mL/min/mg protein | – | – | – | –
COCC(C)(C)C(=O)NCCN1CCC(c2cccc(C(F)(F)F)n2)CC1 [Example 6] | 44 nM | 37 nM | 101 nM | < 10 nM | > 10 µM | – | – | 96% | 58% | <0.01 mL/min/mg protein | – | – | – | –
O=C(NCCN1CC=C(c2cccc(C(F)(F)F)n2)CC1)C1CCC(F)(F)CC1 [Example 12, 4,4-Difluoro-N-{2-[6-(trifluoromethyl)-3′,6′-dihydro[2,4′-bipyridin]-1′ (2′H)-yl]ethyl}-cyclohexane-1-carboxamide] | < 10 nM | 0.2 nM | – | 35 nM | 0.357 µM | 43% | 52% | – | – | 0.115 mL/min/mg protein | 4.5 nM | 3.5 µM | – | –
Cc1cccc(C2=CCN(CCNC(=O)[C@H]3C[C@@H]4CC[C@H]3O4)CC2)n1 [Example 13] | < 10 nM | 1.1 nM | – | < 10 nM | > 10 µM | 48% | 55% | – | – | <0.05 mL/min/mg protein | 24 nM | > 10 µM | – | –
Cc1cccc(C2=CCN(CCNC(=O)C3CCC(F)(F)CC3)CC2)n1 [Example 14] | < 10 nM | 0.1 nM | – | < 10 nM | 2.44 µM | 41% | 53% | – | – | 0.084 mL/min/mg protein | 3 nM | 8.1 µM | – | –
O=C(NCCN1CC=C(c2cccc(C(F)(F)F)n2)CC1)C1CCCOC1 (stereo not drawn) [Example 16, N-{2-[6-(Trifluoromethyl)-3′,6′-dihydro[2,4′-bipyridin]-1′ (2′H)-yl]ethyl}-tetrahydro-2H-pyran-3-carboxamide] | 43 nM | 6 nM | – | 31 nM | 1.69 µM | 36% | 51% | – | – | <0.05 mL/min/mg protein | 27 nM | > 10 µM | – | –
COCC(C)(C)C(=O)NCCN1CC=C(c2cccc(C)n2)CC1 [Example 17] | 94 nM | 26 nM | – | 44 nM | > 10 µM | 30% | 51% | – | – | – | 91 nM | – | – | –
COCC(C)(C)C(=O)NCCN1CC=C(c2cccc(C(F)(F)F)n2)CC1 [Example 18] | 68 nM | 21 nM | – | 37 nM | 2.21 µM | 43% | 61% | – | – | <0.05 mL/min/mg protein | 19 nM | > 10 µM | – | –
O=C(NCCN1CC=C(c2cccc(C(F)(F)F)n2)CC1)C1CCOCC1 [Example 19] | < 10 nM | 0.8 nM | – | 9 nM | > 10 µM | 65% | 84% | – | – | – | 8 nM | – | – | –
Cc1cccc(C2=CCN(CCNC(=O)C3CCCCO3)CC2)n1 (stereo not drawn) [Example 20] | 57 nM | – | – | 15 nM | – | 40% | 60% | – | – | <0.05 mL/min/mg protein | 92 nM | > 10 µM | 6.8 nM | > 10 µM

Further lines, with some results ahead:

EC50 (human 5-HT1A receptor [1]) | Ki (human 5-HT1A receptor [2]; [6]) | Ki (human D4 receptor [3]; [7]) | EC50 (human D4 receptor [4]) | Ki (human D2 receptor; [8]) | Emax (human 5-HT1A receptor [1]) | Emax (human D4 receptor [4]) | Compound | 5-HT1A agonistic activity Emax (human 5-HT1A receptor [1]) | D4 agonistic activity Emax (human D4 receptor [4]) | Metabolic stability of human liver microsome [5] | Ki (human D4 receptor [3]) | IC50 (hERG channel) | Ki (human 5-HT1A receptor [2]) | Ki (human D2 receptor)
100 nM | 13 nM | 505 nM | 41 nM | > 10 µM | 33% | 55% | Cc1cccc(C2CCN(CCNC(=O)C3CCCOC3)CC2)n1 (stereo not drawn) [Example 15] | – | – | <0.05 mL/min/mg protein | – | > 10 µM | – | –
84 nM | 15 nM | 201 nM | 65 nM | 2.17 µM | 30% | 62% | O=C(NCCN1CCC(c2cccc(C(F)(F)F)n2)CC1)[C@H]1C[C@@H]2CC[C@H]1O2 [Example 21] | – | – | <0.05 mL/min/mg protein | – | > 10 µM | – | –
595 nM | 58 nM | 2240 nM | 57 nM | > 10 µM | 25% | 57% | Cc1cccc(C2CCN(CCNC(=O)C3CCOC3)CC2)n1 (stereo not drawn) [Example 22] | – | – | – | – | – | – | –
632 nM | 166 nM | 408 nM | 62 nM | > 10 µM | 28% | 59% | O=C(NCCN1CCC(c2cccc(C(F)(F)F)n2)CC1)C1CCOC1 (stereo not drawn) [Example 23] | – | – | – | – | – | – | –
67 nM | 27 nM | 3380 nM | 32 nM | > 10 µM | 50% | 62% | Cc1cccc(C2CCN(CCNC(=O)C3CCCO3)CC2)n1 (stereo not drawn) [Example 24] | – | – | – | – | – | – | –
395 nM | 79 nM | 1900 nM | 3390 nM | > 10 µM | 43% | 36% | CO[C@H]1CC[C@H](C(=O)NCCN2CCC(c3cccc(C)n3)CC2)CC1 [Example 26] | – | – | – | – | – | – | –
570 nM | 77 nM | 2470 nM | 1650 nM | > 10 µM | 44% | 51% | CO[C@H]1CC[C@H](C(=O)NCCN2CCC(c3cccc(C(F)(F)F)n3)CC2)CC1 [Example 27] | – | – | – | – | – | – | –
67 nM | 42 nM | 96 nM | 7 nM | > 10 µM | 51% | 67% | O=C(NCCN1CCC(c2cccc(F)n2)CC1)C1CCOCC1 [Example 32] | – | – | – | – | – | – | –
525 nM | 278 nM | 2260 nM | 64 nM | > 10 µM | 27% | 52% | N#Cc1cccc(C2CCN(CCNC(=O)C3CCOCC3)CC2)n1 [Example 35, N-{2-[4-(6-Cyanopyridin-2-yl)piperidin-1-yl]ethyl}-tetrahydro-2H-pyran-4-carboxamide] | – | – | – | – | – | – | –
279 nM | 132 nM | 120 nM | 31 nM | > 10 µM | 38% | 58% | Nc1cccc(C2CCN(CCNC(=O)C3CCOCC3)CC2)n1 [Example 36, N-{2-[4-(6-Aminopyridin-2-yl)piperidin-1-yl]ethyl}-tetrahydro-2H-pyran-4-carboxamide] | – | – | – | – | – | – | –
343 nM | 108 nM | 73 nM | 52 nM | > 10 µM | 40% | 57% | CNc1cccc(C2CCN(CCNC(=O)C3CCOCC3)CC2)n1 [Example 37, N-(2-{4-[6-(Methylamino)pyridin-2-yl]piperidin-1-yl}ethyl)-tetrahydro-2H-pyran-4-carboxamide] | – | – | – | – | – | – | –
